Results on eleven compounds are retold here after ChEMBL document CHEMBL3393020, “Biofilm inhibition of linezolid-like Schiff bases: synthesis, biological activity, molecular docking and in silico ADME prediction” (Bioorg Med Chem Lett, 2015).

Converted amounts (≈) assume the structure as drawn. The source made the active and inactive calls. No cut-off for these calls is given here.

System in the first data set: not listed separately
The data set is described as follows: Retardation factor of the compound. It counts as physicochemical.
Conditions: not given
`Fc1cc(/N=C/c2c[nH]c3ccccc23)ccc1N1CCOCC1`: the Rf is 0.52.
`Fc1cc(/N=C/c2ccccc2)ccc1N1CCOCC1` gave a Rf of 0.64.
Still for that read-out and setting: next, `Fc1cc(/N=C/c2c(Cl)cccc2Cl)ccc1N1CCOCC1`: 0.48; `COc1ccc(/C=N/c2ccc(N3CCOCC3)c(F)c2)cc1OC`: 0.55.
Regarding `Fc1cc(/N=C/c2ccoc2)ccc1N1CCOCC1`, the Rf was 0.61.
In the case of `Fc1ccc(/C=N/c2ccc(N3CCOCC3)c(F)c2)cc1`, the Rf amounted to 0.52.
With `Fc1cc(/N=C/c2cc3ccccc3nc2Cl)ccc1N1CCOCC1`, the Rf was determined as 0.46.
`Cc1cccc2cc(/C=N/c3ccc(N4CCOCC4)c(F)c3)c(Cl)nc12` gave a Rf of 0.44.
Take `Oc1ccc(/C=N/c2ccc(N3CCOCC3)c(F)c2)cc1O`: the Rf stood at 0.59.

A further data set has as its system Pseudomonas aeruginosa. Description: Inhibition of biofilm formation of Pseudomonas aeruginosa PAO1 incubated for 18 hrs by crystal violet staining based spectroscopy. To be noted: PAO1, 18 h. It counts as functional, organism-based.
Usually IC50 stands for the concentration at which inhibition is half-maximal. A low value points to higher potency. Compound `Fc1cc(/N=C/c2c[nH]c3ccccc23)ccc1N1CCOCC1` came in with an IC50 of 29.1 µM.
Still for that read-out and setting: next, `Fc1cc(/N=C/c2ccccc2)ccc1N1CCOCC1`: 39.4 µM; `Fc1cc(/N=C/c2c(Cl)cccc2Cl)ccc1N1CCOCC1`: 27.5 µM; `COc1ccc(/C=N/c2ccc(N3CCOCC3)c(F)c2)cc1OC`: 27.9 µM.
`Fc1cc(/N=C/c2ccoc2)ccc1N1CCOCC1` showed an IC50 of 35.9 µM.
Consider `Fc1ccc(/C=N/c2ccc(N3CCOCC3)c(F)c2)cc1`, for which it took 31.1 µM to reach half-maximal inhibition (IC50).
With `Fc1cc(/N=C/c2cc3ccccc3nc2Cl)ccc1N1CCOCC1`, the IC50 came out at 13 µM.
The same measure, in the same setting: next, `CC(=O)NC[C@H]1CN(c2ccc(N3CCOCC3)c(F)c2)C(=O)O1` [LINEZOLID]: 15.9 µM.
The compound `Cc1cccc2cc(/C=N/c3ccc(N4CCOCC4)c(F)c3)c(Cl)nc12` gave an IC50 of 15.6 µM.
`Oc1ccc(/C=N/c2ccc(N3CCOCC3)c(F)c2)cc1O`: the midpoint of inhibition, the IC50, lay at 31.6 µM.

A further data set relates to Bacillus subtilis. The data set is described as follows: Antibacterial activity against Bacillus subtilis NCIM-2063 incubated for 24 hrs by two fold serial dilution method. The note with it: NCIM-2063, 24 h. Format: functional.
What is called MIC is the least concentration at which growth counts as inhibited. The low end stands for greater potency, the high end for weaker potency. Take `Fc1cc(/N=C/c2c[nH]c3ccccc23)ccc1N1CCOCC1`: 35 µg/mL (≈ 108 µM) was the least that counted as inhibitory (MIC).
Still for that read-out and setting: then `Fc1cc(/N=C/c2ccccc2)ccc1N1CCOCC1`, with 30 µg/mL (≈ 106 µM); and `Fc1cc(/N=C/c2c(Cl)cccc2Cl)ccc1N1CCOCC1`, with 20 µg/mL (≈ 56.6 µM); and `COc1ccc(/C=N/c2ccc(N3CCOCC3)c(F)c2)cc1OC`, with 20 µg/mL (≈ 58.1 µM).
On the same count and under the same terms, then `Fc1cc(/N=C/c2ccoc2)ccc1N1CCOCC1`, with 40 µg/mL (≈ 146 µM); and `Fc1ccc(/C=N/c2ccc(N3CCOCC3)c(F)c2)cc1`, with 20 µg/mL (≈ 66.2 µM); and `Fc1cc(/N=C/c2cc3ccccc3nc2Cl)ccc1N1CCOCC1`, with 5 µg/mL (≈ 13.5 µM).
Compound `CC(=O)NC[C@H]1CN(c2ccc(N3CCOCC3)c(F)c2)C(=O)O1` [LINEZOLID] had an MIC of 3 µg/mL (≈ 8.89 µM).
The same measure, in the same setting: next, `Cc1cccc2cc(/C=N/c3ccc(N4CCOCC4)c(F)c3)c(Cl)nc12`: 10 µg/mL (≈ 26.1 µM); `Oc1ccc(/C=N/c2ccc(N3CCOCC3)c(F)c2)cc1O`: 25 µg/mL (≈ 79 µM).

The test system of the next data set is Escherichia coli. The data set is described as follows: Antibacterial activity against Escherichia coli NCIM-2256 incubated for 24 hrs by two fold serial dilution method. Format: functional. To be noted: NCIM-2256, 24 h.
In turn, `Fc1cc(/N=C/c2c[nH]c3ccccc23)ccc1N1CCOCC1` gave an MIC of 40 µg/mL (≈ 124 µM).
`Fc1cc(/N=C/c2ccccc2)ccc1N1CCOCC1` showed an MIC of 35 µg/mL (≈ 123 µM).
On the same count and under the same terms, then `Fc1cc(/N=C/c2c(Cl)cccc2Cl)ccc1N1CCOCC1`, with 25 µg/mL (≈ 70.8 µM).
As to `COc1ccc(/C=N/c2ccc(N3CCOCC3)c(F)c2)cc1OC`, it took 20 µg/mL (≈ 58.1 µM) to inhibit growth (MIC).
The compound `Fc1cc(/N=C/c2ccoc2)ccc1N1CCOCC1` gave an MIC of 35 µg/mL (≈ 128 µM).
On the same count and under the same terms, then `Fc1ccc(/C=N/c2ccc(N3CCOCC3)c(F)c2)cc1`, with 30 µg/mL (≈ 99.2 µM); and `Fc1cc(/N=C/c2cc3ccccc3nc2Cl)ccc1N1CCOCC1`, with 10 µg/mL (≈ 27 µM); and `CC(=O)NC[C@H]1CN(c2ccc(N3CCOCC3)c(F)c2)C(=O)O1` [LINEZOLID], with 2 µg/mL (≈ 5.93 µM).
In turn, `Cc1cccc2cc(/C=N/c3ccc(N4CCOCC4)c(F)c3)c(Cl)nc12` yielded an MIC of 10 µg/mL (≈ 26.1 µM).
Compound `Oc1ccc(/C=N/c2ccc(N3CCOCC3)c(F)c2)cc1O` returned an MIC of 30 µg/mL (≈ 94.8 µM).
On the same count and under the same terms, next, `O=C(O)c1cn(C2CC2)c2cc(N3CCNCC3)c(F)cc2c1=O` [CIPROFLOXACIN]: 25 µg/mL (≈ 75.4 µM).

For a further data set, the system named is Pseudomonas aeruginosa. Description: Antibacterial activity against Pseudomonas aeruginosa NCIM-2036 incubated for 24 hrs by two fold serial dilution method. To be noted: NCIM-2036, 24 h. Format: functional.
In the case of `Fc1cc(/N=C/c2c[nH]c3ccccc23)ccc1N1CCOCC1`, the MIC came out at 25 µg/mL (≈ 77.3 µM).
For `Fc1cc(/N=C/c2ccccc2)ccc1N1CCOCC1`, 20 µg/mL (≈ 70.3 µM) was the least that counted as inhibitory (MIC).
For `Fc1cc(/N=C/c2c(Cl)cccc2Cl)ccc1N1CCOCC1`, the lowest concentration to inhibit growth (MIC) was 30 µg/mL (≈ 84.9 µM).
`COc1ccc(/C=N/c2ccc(N3CCOCC3)c(F)c2)cc1OC`: the MIC came to 20 µg/mL (≈ 58.1 µM).
Consider `Fc1cc(/N=C/c2ccoc2)ccc1N1CCOCC1`, for which the lowest concentration to inhibit growth (MIC) was 30 µg/mL (≈ 109 µM).
Same read-out and setting: then `Fc1ccc(/C=N/c2ccc(N3CCOCC3)c(F)c2)cc1`, with 20 µg/mL (≈ 66.2 µM); and `Fc1cc(/N=C/c2cc3ccccc3nc2Cl)ccc1N1CCOCC1`, with 2.5 µg/mL (≈ 6.76 µM); and `CC(=O)NC[C@H]1CN(c2ccc(N3CCOCC3)c(F)c2)C(=O)O1` [LINEZOLID], with 2.5 µg/mL (≈ 7.41 µM).
On the same count and under the same terms, next, `Cc1cccc2cc(/C=N/c3ccc(N4CCOCC4)c(F)c3)c(Cl)nc12`: 3.5 µg/mL (≈ 9.12 µM).
Take `Oc1ccc(/C=N/c2ccc(N3CCOCC3)c(F)c2)cc1O`: the MIC was 20 µg/mL (≈ 63.2 µM).

Another data set relates to Pseudomonas aeruginosa. The data set is described as follows: Inhibition of biofilm formation of Pseudomonas aeruginosa PAO1 incubated for 15 mins by field emission scanning electron microscopy. It counts as functional, organism-based.
Conditions: not given
On to `Fc1cc(/N=C/c2cc3ccccc3nc2Cl)ccc1N1CCOCC1`, for which the inhibition result is “Active”.
As for `Cc1cccc2cc(/C=N/c3ccc(N4CCOCC4)c(F)c3)c(Cl)nc12`, the inhibition entry was “Active”.

A further data set concerns Pseudomonas aeruginosa. The data set is described as follows: Effect on planktonic cells growth of Pseudomonas aeruginosa PAO1 incubated for 15 mins by field emission scanning electron microscopy. Format: organism-based. To be noted: 0.25 h.
Take `Fc1cc(/N=C/c2cc3ccccc3nc2Cl)ccc1N1CCOCC1`: the Activity entry is given as “Non-toxic”.
In the case of `Cc1cccc2cc(/C=N/c3ccc(N4CCOCC4)c(F)c3)c(Cl)nc12`, the Activity entry was “Non-toxic”.
